# Laboratory results from patent US20230263797A1, “Mammalian Hybrid Pre-Autophagosomal Structure HyPAS and Compositions and Methods for the Treatment of Coronavirus Infections and Related Disease States” (UNM Rainforest Innovations, priority 2021, published 2023).
# Columns and labels:
# [1] = test system: HyPAS formation; assay: High content microscopy (HCM) quantification of HyPAS formation (overlap between FIP200 and FLAG-ATG16L1); assay type: cell-based, human
# Method: (§1) HCM was performed as described previously (Kumar et al., 2019). Cells were stimulated for autophagy by incubating in EBSS for 2 h followed by fixation with 4% paraformaldehyde for 5 mins. Cells were permeabilized with 0.1% saponin and blocked in 3% BSA for 30 mins followed by incubation with primary antibody for 6 h and secondary antibody for 1 h. High content microscopy with automated image acquisition and quantification was carried out using a Cellomics HCS scanner and iDEV software (Thermo) in 96-well plates (Kumar et al., 2019). For HCM experiments >500 primary objects were counted per well, minimum 6 wells were counted per experiments and data presented in figures are derived from at least 3 independent experiments.
# Immunofluorescence confocal microscopy was carried out as described previously (Kumar et al., 2019). Briefly, cells were plated onto coverslips in 6 well or 12-well plates. Transfected cells were incubated in full media or EBSS (Earle's Balanced Salt Solution) for 2 h and fixed in 4% paraformaldehyde for 10 min followed by permeabilization with 0.1% saponin in 3% BSA. Cells were blocked 3% BSA and then incubated with primary antibodies for 4 h. Cells were washed three times with PBS and then incubated with appropriate secondary antibodies (Invitrogen) for 1 h at room temperature. Coverslips were then mounted using ProLong Gold Antifade Mountant (Invitrogen) and analyzed by confocal microscopy using the Zeiss LSM510 Laser Scanning Microscope.
# [2] = test system: LC3-ATG16L1 overlap in HeLa cells; assay: HCM colocalization between FLAG-ATG16L1 and LC3 (LAP-like noncanonical autophagy); assay type: cell-based, human; conditions: WT or STX17KO HeLa cells; monensin 100 μM for 1 h
# Method: as §1, with “Cells were stimulated for autophagy by incubating in EBSS for 2 h followed by fixation with 4% paraformaldehyde for 5 mins.” left out
# [3] = test system: STX17 and E-SYT2 interactions; assay: Co-IP analysis of interactions of STX17 with E-SYT2 in 293T cells; assay type: cell-based; conditions: CQ treatment
# Method: (§2) Immunoblotting and co-immunoprecipitation (co-IP) were performed as described previously (Kumar et al., 2018). For co-IP, cells were transfected with 10 μg of plasmids, wherever stated, and lysed in NP-40 buffer containing protease inhibitor cocktail (Roche, cat #11697498001) and PMSF (Sigma, cat #93482). Lysates were mixed with 5 μg antibody and incubated at 4° C. for overnight followed by incubation with Dynabeads protein G (Life Technologies) for 4 h, at 4° C. Beads were washed three times with PBS and then boiled with SDS-PAGE buffer for analysis of interacting protein by immunoblotting.
# [4] = test system: HyPAS formation in vitro (GFP-FIP200 and mCherry-ATG16L1 membranes); assay: In vitro fusion ivitHC assay between GFP-FIP200 and mCherry-ATG16L1 membranes; assay type: biochemical; conditions: vesicles from cells induced for autophagy; BAPTA used at 20 μM
# Method: 293A WT or SIGMAR1^KO cells were plated in 96 well plates and transfected with indicated Keima plasmids. Cells were incubated in full media or induced for autophagy by incubating with EBSS for 8 h. Cells were then incubated in full media and incubated with Hoechst 33342 for ten minutes in full media and then acquired for Keima fluorescence at 440 nm and 560 nm using the Cell Insight CX7 High-Content Screening (HCS) Platform (Thermo)(Kumar et al., 2019). In Vitro Fusion ivitHC Assay In vitro fusion assay was developed for HCM platform by modifying a previously described assay (Matsui et al., 2018a; Moreau et al., 2011). […]
# One hypothesis that emerged from the above studies is that FIP200 and ATG16L1 represent two precursor membranes with STX17 facilitating heterotypic fusion between them early in autophagy. […] This method mixes vesicles from different cells expressing green (GFP-FIP200) and red (mCherry-ATG16L1) markers and after addition of an ATP and ATP-regenerating system vesicle fusion is monitored by fluorescence microscopy. We adapted this to permit HCM quantification allowing highly powered analyses and termed it IvitHC (in vitro fusion high content assay) (FIG. 2A). […]
# [5] = test system: STX17 and SERCA2 interactions; assay: Co-IP analysis of interactions of STX17 with SERCA2 in 293T cells; assay type: cell-based; conditions: CQ treatment
# Method: as §2
smiles,measurement,setting,value
"CN(C)CCN(C)CCc1ccc(Cl)c(Cl)c1 [BD1047, BD-1047]",HyPAS formation induced by starvation,"[1]; HeLa cells induced for autophagy (EBSS, 2 h), 10 μM for 1 h",inhibited
"C/C=C(/C)C(=O)O[C@H]1C(C)=C2[C@H]([C@@H]1OC(=O)CCCCCCC)[C@@](C)(OC(C)=O)C[C@H](OC(=O)CCC)[C@@]1(O)[C@H]2OC(=O)[C@@]1(C)O [TG, thapsigargin]",Effect of TG on HyPAS formation,[1]; STX17KO HeLa cells,abrogated
same,HyPAS formation,"[1]; WT HeLa cells, basal conditions, thapsigargin treatment",increased
CC[C@@]1([C@@H]2O[C@@H]([C@H]3O[C@@](O)(CO)[C@H](C)C[C@@H]3C)C[C@@H]2C)CC[C@H]([C@]2(C)CC[C@]3(C[C@H](O)[C@@H](C)[C@@H]([C@@H](C)[C@@H](OC)[C@H](C)C(=O)O)O3)O2)O1 [monensin],"LC3-ATG16L1 overlap, as a measure of LAP-like noncanonical autophagy",[2],increase
"CCN(CC)CCCC(C)Nc1ccnc2cc(Cl)ccc12 (stereo not shown) [CQ, chloroquine]",STX17 and E-SYT2 interactions (co-IP),[3],inhibited
same,HyPAS formation in vitro (IvitHC),[4],inhibited
same,STX17 and SERCA2 interactions (co-IP),[5],did not inhibit
COc1ccc(CCN2CCN(CCCc3ccccc3)CC2)cc1OC [cutamesine],HyPAS formation,"[1]; cells grown in full medium, 100 nM for 2 h",induced
CC(=O)OCOC(=O)CN(CC(=O)OCOC(C)=O)c1ccccc1OCCOc1ccccc1N(CC(=O)OCOC(C)=O)CC(=O)OCOC(C)=O [BAPTA-AM],HyPAS formation,"[1]; STX17KO HeLa cells, starvation-induced autophagy, BAPTA-AM treatment",did not further affect
same,HyPAS formation,"[1]; WT HeLa cells, starvation-induced autophagy (EBSS, 2 h), BAPTA-AM treatment",reduced
